One experiment concerns the target ROCK2 (Homo sapiens, UniProt O75116). Description: ROCK Kinase Assay (Kinase-Glo luminescent). The class given is biochemical. How it is done:
All compounds were initially prepared as 10 mM stocks in anhydrous dimethylsulfoxide (DMSO). […] Test compounds were then serially diluted 1:3 in DMSO for a 10-point concentration response and further diluted in the assay buffer bringing all compound concentrations to 4× final concentration in 10% DMSO. […] A 10 μL aliquot of compound from each well of the intermediate dilution plate and 10 μL of a 4× stock solution containing ATP (5 μM) and acceptor substrate (20 μM RSK2 peptide […]) were added to all wells. […] Reactions were thoroughly mixed manually, covered and allowed to incubate at room temperature for 180 min. Protein kinase activity was quantitated using Promega's Kinase-Glo™ luminescent Kinase Assay Kit according to the manufacturer's directions. ATP concentrations remaining in Test wells following the termination of the enzymatic reaction were compared against control wells containing equivalent amounts of DMSO containing no inhibitor (CTRL). […] Percent of Control (POC) values were determined for each concentration of compound tested according to the equation: POC=((Test well value−BKG)/(CTRL−BKG))*100
IC50 values were calculated using the following 4-parameter logistic curve-fitting algorithm: f(x)=(A+((B−A)/(1+((x/C)^D))))
IC50 values were converted to Ki values using the Cheng-Prusoff Equation: Ki=IC50/(1+([ATP]/Km ATP])).

The test system of experiment [1] is Immortalized Human Trabecular Meshwork cells (TM-1). Description: PTM-HTM Assay: human trabecular meshwork cells, focal adhesions. The format is cell-based. To be noted: TM1, TM-1 cells, anti-paxillin stain, total area of focal adhesions, percent of control. How it is done:
(§1) Porcine Trabecular Meshwork cells (PTM) were isolated from freshly obtained enucleated porcine eyes following a procedure by Rao et al.^1 Immortalized Human Trabecular Meshwork cells (TM-1) were obtained through a kind gift from Donna Peters in the Department of Ophthalmology and Visual Sciences at the University of Wisconsin. Cells were plated onto fibronectin coated glass-bottom 96-well plates and allowed to attach overnight. Media was removed and replaced with test compound in media with 1% fetal bovine serum and incubated for various times. After incubation, cells were formaldehyde fixed, triton solubilized, and stained. PTM cells were stained with Alexa Fluor®488 phalloidin (F-actin) and Hoechst 33342 (nuclei). TM-1 cells were stained with anti-paxillin followed by Alexa Fluor®488 goat-anti-mouse IgG (focal adhesions) and Hoechst 33342 (nuclei). All staining reagents were obtained through Invitrogen. Images were collected on an INCell 2200 imager with a 20× objective. The actin fiber length and total area of focal adhesions were analyzed using custom algorithms developed in the INCell Developer Toolbox, v1.9.3. Data collected were converted to percent of control (untreated cells). Curves were fit to data in GraphPad Prizm4 using sigmoidal dose-response and constraining top and bottom to 100% and 0%, respectively.

Experiment [2] relates to Porcine Trabecular Meshwork cells (PTM). In words: PTM-HTM Assay: porcine trabecular meshwork cells, actin fibers. The format is cell-based. To be noted: Sus scrofa, phalloidin stain, actin fiber length, percent of control. How it is done: as §1
[3] abbreviates: IC50 converted to Ki by Cheng-Prusoff, ATP 5 μM, ROCK2 1 nM, 180 min, read-out: ROCK2 Ki.

pIC50, pKi: −log10 of the molar value. Read-outs that look alike come from different tables or passages of the source.

For orientation: pKi means −log10 of the Ki, conventionally taken in molar units. In general, pIC50 refers to the IC50 on a negative log10 scale, so that one unit is a factor of ten.

Chain of ROCK2 (O75116 whole entry, species assumed): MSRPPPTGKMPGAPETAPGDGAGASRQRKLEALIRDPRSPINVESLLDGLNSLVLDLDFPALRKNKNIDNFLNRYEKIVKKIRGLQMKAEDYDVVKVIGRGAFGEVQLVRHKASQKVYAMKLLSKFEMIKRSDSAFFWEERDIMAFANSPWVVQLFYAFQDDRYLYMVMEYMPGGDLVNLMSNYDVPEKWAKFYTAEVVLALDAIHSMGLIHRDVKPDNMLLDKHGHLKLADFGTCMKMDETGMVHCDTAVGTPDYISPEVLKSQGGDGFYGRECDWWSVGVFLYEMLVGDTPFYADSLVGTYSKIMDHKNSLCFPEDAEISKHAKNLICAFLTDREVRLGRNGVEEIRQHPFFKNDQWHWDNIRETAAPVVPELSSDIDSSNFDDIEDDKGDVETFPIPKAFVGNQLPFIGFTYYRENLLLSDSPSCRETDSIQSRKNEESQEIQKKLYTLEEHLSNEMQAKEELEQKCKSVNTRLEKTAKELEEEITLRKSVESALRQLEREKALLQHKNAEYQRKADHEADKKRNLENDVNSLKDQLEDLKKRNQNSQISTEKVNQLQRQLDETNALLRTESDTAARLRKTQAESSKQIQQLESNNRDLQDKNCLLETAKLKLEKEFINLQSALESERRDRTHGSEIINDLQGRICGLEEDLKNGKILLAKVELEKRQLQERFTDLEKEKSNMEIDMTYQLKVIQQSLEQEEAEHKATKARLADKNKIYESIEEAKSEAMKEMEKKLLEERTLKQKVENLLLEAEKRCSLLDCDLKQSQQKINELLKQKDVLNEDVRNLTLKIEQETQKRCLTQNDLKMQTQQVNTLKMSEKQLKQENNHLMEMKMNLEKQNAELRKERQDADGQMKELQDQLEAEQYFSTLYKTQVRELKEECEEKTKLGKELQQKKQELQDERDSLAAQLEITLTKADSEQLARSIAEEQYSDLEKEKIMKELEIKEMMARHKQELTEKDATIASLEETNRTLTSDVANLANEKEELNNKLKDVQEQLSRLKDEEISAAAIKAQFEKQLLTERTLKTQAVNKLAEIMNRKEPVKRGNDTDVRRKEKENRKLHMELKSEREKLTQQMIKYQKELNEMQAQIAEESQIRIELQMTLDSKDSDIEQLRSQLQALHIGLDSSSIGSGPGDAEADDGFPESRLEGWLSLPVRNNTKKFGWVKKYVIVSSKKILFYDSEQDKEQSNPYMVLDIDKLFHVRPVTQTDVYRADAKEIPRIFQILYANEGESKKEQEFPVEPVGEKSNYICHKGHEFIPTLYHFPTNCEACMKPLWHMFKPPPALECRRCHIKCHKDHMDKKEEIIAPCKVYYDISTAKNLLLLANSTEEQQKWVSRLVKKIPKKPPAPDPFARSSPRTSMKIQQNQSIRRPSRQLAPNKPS

As for `NC[C@@H](C(=O)Nc1ccc2cnccc2c1)c1ccccc1` [3 (S)], the pKi on ROCK2 (setting [3]) was 9.40. The same compound showed a pIC50 in experiment [1] of 7.39.
As for `NC[C@H](C(=O)Nc1ccc2cnccc2c1)c1ccccc1` [4 (R)], the pKi at ROCK2 (setting [3]) is 7.80.
For `NCC(C(=O)Nc1ccc2cnccc2c1)c1ccccc1` (centres unmarked) [Compound 2], at ROCK2 (setting [3]), the pKi was 9.10.
For the compound `NCC(C(=O)Nc1ccc2c(O)nccc2c1)c1ccccc1` (centres unmarked) [Compound 5], on ROCK2 (setting [3]), the pKi is 8.66. The pIC50 was 6.58 in experiment [1] and 7.35 in experiment [2].
For `NCC(C(=O)Nc1ccc2cnccc2c1)c1ccccc1F` (centres unmarked) [Compound 6], the pKi at ROCK2 (setting [3]) was 9.00. Further, the pIC50 in experiment [1] is 6.86; in experiment [2], 6.59.
With `NCC(C(=O)Nc1ccc2cnccc2c1)c1cccc(F)c1` (centres unmarked) [Compound 7], the pKi at ROCK2 (setting [3]) is 9.00. The negative logarithm of the IC50 (pIC50) in experiment [1] was 6.70; in experiment [2] it was 6.53.
In the case of `NCC(C(=O)Nc1ccc2cnccc2c1)c1ccc(F)cc1` (centres unmarked) [Compound 8], the pKi at ROCK2 (setting [3]) was 9.00. Moreover, the pIC50 in experiment [1] is 6.99; in experiment [2], 6.76.
Regarding `NCC(C(=O)Nc1ccc2cnccc2c1)c1ccccc1Cl` (centres unmarked) [Compound 9], the pKi at ROCK2 (setting [3]) was 8.89. The figures for the pIC50 in experiment [1] and in experiment [2] were 6.72 and 6.61, respectively.
Regarding `NCC(C(=O)Nc1ccc2cnccc2c1)c1cccc(Cl)c1` (centres unmarked) [Compound 10], the pKi on ROCK2 (setting [3]) is 9.05. In addition, the pIC50 is 6.42 in experiment [1] and 6.34 in experiment [2].
For the compound `NCC(C(=O)Nc1ccc2cnccc2c1)c1ccc(Cl)cc1` (centres unmarked) [Compound 11], the pKi at ROCK2 (setting [3]) is 9.40. The figures for the pIC50 in experiment [1] and in experiment [2] were 7.19 and 6.89, respectively.
Consider `NCC(C(=O)Nc1ccc2cnccc2c1)c1ccc(Cl)cc1Cl` (centres unmarked) [Compound 12], for which the pKi on ROCK2 (setting [3]) was 9.10. Besides, the pIC50 in experiment [1] was 6.68; in experiment [2] it was 6.67.
`Cc1ccccc1C(CN)C(=O)Nc1ccc2cnccc2c1` (centres unmarked) [Compound 13]: on ROCK2 (setting [3]), the pKi is 9.00. Moreover, the pIC50 in experiment [1] is 7.05; in experiment [2] it was 6.70.
For `Cc1cccc(C(CN)C(=O)Nc2ccc3cnccc3c2)c1` (centres unmarked) [Compound 14], the pKi at ROCK2 (setting [3]) is 8.48. Also, the pIC50 is 6.49 in experiment [1] and 6.29 in experiment [2].
In the same order, the values of `Cc1ccc(C(CN)C(=O)Nc2ccc3cnccc3c2)cc1` (centres unmarked) [Compound 15] are 9.40, 7.41 and 7.08.
Consider `NCC(C(=O)Nc1ccc2cnccc2c1)c1cccc(O)c1` (centres unmarked) [Compound 16], for which the negative logarithm of the Ki (pKi) at ROCK2 (setting [3]) was 8.89. Besides, the figures for the negative-log IC50 (pIC50) in experiment [1] and in experiment [2] were 5.76 and 6.34, respectively.
Regarding `NCC(C(=O)Nc1ccc2cnccc2c1)c1ccc(O)cc1` (centres unmarked) [Compound 17], at ROCK2 (setting [3]), the pKi was 9.22. In addition, the pIC50 in experiment [1] is 6.71; in experiment [2], 5.99.
Consider `NCC(C(=O)Nc1ccc2cnccc2c1)c1ccc(O)c(O)c1` (centres unmarked) [Compound 18], for which the pKi on ROCK2 (setting [3]) was 8.26. Moreover, the pIC50 is 4.96 in experiment [1] and 5.29 in experiment [2].
As to `COc1cccc(C(CN)C(=O)Nc2ccc3cnccc3c2)c1` (centres unmarked) [Compound 19], the pKi at ROCK2 (setting [3]) is 8.70. Besides, the pIC50 in experiment [1] was 6.67; in experiment [2], 6.35.
In the same order, the values of `COc1ccc(C(CN)C(=O)Nc2ccc3cnccc3c2)cc1` (centres unmarked) [Compound 20] are 8.89, 6.95 and 6.17.
As for `NCC(C(=O)Nc1ccc2cnccc2c1)c1cccc(C(F)(F)F)c1` (centres unmarked) [Compound 21], on ROCK2 (setting [3]), the pKi was 8.57. The pIC50 was 6.32 in experiment [1] and 6.22 in experiment [2].
Take `NCC(C(=O)Nc1ccc2cnccc2c1)c1ccc(C(F)(F)F)cc1` (centres unmarked) [Compound 22]: on ROCK2 (setting [3]), the pKi was 8.74. Further, the pIC50 in experiment [1] is 6.31; in experiment [2], 6.82.
In the case of `NCC(C(=O)Nc1ccc2cnccc2c1)c1cccc(CO)c1` (centres unmarked) [Compound 23], the pKi at ROCK2 (setting [3]) is 8.52. Further, the negative logarithm of the IC50 (pIC50) in experiment [1] was 6.61; in experiment [2] it was 5.86.
On ROCK2, `NCC(C(=O)Nc1ccc2cnccc2c1)c1ccc(CO)cc1` (centres unmarked) [Compound 24] had a pKi of 9.15.

For the origin of these results see patent publication US9963432B2, “Beta-amino-isoquinolinyl amide compounds” (Aerie Pharmaceuticals, Inc., priority 2016, dated 2018).
